From US20250243180A1, “TARGETED PROTEIN DEGRADATION” (Monte Rosa Therapeutics AG, priority 2023, published 2025)
Like-named read-outs stand apart in the source and are kept apart here.

Assays:
NEK7 = NEK7 (Homo sapiens (Human), UniProt Q8TDX7+Q96SW2); experiment: NEK7 NanoBiT degradation assay in Cal51 NEK7 NanoBiT cell line; assay type: cell-based; settings: Cal51 NEK7 NanoBiT cells, 24 hours; for Dmax: CAL-51
Outline: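 EC50 comes from a 4-parameter fit of control-normalized luminescence. The luminescence reports HiBiT-NEK7 (endogenous knock-in) complemented by stably expressed LgBiT in Cal51 cells after 24 h compound exposure at 37 °C. Final concentrations ran 1 μM to 0.05 nM, with Endurazine substrate present in the medium throughout.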

CRBN-DDB1 = CRBN-DDB1 (Homo sapiens (Human), UniProt Q96SW2); experiment: Compound binding to CRBN by HTRF assay
Outline: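 Ki calculated via Cheng-Prusoff from geometric-mean EC50 values, after normalizing the HTRF ratio to lenalidomide (active) and DMSO (neutral) controls. Compounds (11 points, 1:3 steps) incubated 30 min at ambient temperature with CRBN-DDB1 2.5 nM, anti-His Tb cryptate and Cy5-thalidomide tracer 100 nM.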

[1] = NEK7 degradation, read-out: NanoBiT Dmax
[2] = NEK7 degradation, read-out: NanoBiT DC50

Chain of NEK7 (Q8TDX7 whole entry): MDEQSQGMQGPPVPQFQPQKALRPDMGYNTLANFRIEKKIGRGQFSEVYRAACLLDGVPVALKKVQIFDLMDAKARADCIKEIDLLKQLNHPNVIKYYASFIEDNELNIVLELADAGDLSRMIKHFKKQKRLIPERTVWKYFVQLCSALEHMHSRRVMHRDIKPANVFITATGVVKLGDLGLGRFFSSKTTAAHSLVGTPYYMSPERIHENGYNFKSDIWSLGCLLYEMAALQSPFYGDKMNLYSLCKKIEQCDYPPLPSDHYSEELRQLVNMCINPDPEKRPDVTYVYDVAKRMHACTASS
Chain of NEK7 (Q96SW2 whole entry): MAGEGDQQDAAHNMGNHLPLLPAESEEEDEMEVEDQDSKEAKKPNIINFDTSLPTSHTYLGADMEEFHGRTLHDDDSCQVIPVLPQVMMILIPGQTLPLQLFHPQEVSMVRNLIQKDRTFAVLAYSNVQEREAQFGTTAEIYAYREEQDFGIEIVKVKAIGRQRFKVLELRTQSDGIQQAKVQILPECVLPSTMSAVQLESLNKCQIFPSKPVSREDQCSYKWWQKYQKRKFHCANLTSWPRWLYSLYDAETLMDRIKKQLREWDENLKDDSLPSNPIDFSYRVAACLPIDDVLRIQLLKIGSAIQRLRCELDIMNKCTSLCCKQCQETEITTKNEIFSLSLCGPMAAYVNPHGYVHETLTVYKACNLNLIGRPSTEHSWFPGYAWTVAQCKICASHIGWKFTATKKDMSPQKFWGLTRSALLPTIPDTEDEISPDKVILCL
Chain of NEK7 (Q16531 2-1140 partner): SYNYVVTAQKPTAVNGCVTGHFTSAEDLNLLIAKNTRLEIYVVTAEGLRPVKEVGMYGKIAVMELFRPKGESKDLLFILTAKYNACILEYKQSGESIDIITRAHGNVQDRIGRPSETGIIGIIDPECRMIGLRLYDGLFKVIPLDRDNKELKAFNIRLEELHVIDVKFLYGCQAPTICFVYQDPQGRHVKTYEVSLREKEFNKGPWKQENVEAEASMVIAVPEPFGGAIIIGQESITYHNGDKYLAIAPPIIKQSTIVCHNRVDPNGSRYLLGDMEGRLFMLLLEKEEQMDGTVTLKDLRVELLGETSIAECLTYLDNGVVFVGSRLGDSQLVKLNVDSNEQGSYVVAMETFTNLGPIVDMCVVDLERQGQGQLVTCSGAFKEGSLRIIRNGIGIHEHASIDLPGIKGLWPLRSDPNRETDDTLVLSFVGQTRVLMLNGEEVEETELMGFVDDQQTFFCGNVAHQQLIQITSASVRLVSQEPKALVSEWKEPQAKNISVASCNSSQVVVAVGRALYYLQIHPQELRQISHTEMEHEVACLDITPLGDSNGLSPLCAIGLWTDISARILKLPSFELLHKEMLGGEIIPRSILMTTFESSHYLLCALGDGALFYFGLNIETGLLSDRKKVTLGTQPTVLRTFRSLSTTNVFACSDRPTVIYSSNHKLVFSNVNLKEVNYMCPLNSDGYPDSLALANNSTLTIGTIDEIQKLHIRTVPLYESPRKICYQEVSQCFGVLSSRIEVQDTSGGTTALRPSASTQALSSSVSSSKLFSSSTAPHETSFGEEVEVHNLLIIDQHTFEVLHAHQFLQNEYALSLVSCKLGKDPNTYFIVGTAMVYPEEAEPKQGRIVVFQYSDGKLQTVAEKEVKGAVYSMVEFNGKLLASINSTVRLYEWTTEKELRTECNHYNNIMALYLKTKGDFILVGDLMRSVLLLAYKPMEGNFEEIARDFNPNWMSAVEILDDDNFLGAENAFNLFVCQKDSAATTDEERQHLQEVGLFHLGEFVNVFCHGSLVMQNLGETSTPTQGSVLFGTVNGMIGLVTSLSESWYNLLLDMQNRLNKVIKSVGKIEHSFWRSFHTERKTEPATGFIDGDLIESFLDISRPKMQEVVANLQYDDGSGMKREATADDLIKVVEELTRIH
Chain of CRBN-DDB1 (Q96SW2 whole entry): as the sequence (Q96SW2 whole entry) above
Chain of CRBN-DDB1 (Q16531 whole entry partner): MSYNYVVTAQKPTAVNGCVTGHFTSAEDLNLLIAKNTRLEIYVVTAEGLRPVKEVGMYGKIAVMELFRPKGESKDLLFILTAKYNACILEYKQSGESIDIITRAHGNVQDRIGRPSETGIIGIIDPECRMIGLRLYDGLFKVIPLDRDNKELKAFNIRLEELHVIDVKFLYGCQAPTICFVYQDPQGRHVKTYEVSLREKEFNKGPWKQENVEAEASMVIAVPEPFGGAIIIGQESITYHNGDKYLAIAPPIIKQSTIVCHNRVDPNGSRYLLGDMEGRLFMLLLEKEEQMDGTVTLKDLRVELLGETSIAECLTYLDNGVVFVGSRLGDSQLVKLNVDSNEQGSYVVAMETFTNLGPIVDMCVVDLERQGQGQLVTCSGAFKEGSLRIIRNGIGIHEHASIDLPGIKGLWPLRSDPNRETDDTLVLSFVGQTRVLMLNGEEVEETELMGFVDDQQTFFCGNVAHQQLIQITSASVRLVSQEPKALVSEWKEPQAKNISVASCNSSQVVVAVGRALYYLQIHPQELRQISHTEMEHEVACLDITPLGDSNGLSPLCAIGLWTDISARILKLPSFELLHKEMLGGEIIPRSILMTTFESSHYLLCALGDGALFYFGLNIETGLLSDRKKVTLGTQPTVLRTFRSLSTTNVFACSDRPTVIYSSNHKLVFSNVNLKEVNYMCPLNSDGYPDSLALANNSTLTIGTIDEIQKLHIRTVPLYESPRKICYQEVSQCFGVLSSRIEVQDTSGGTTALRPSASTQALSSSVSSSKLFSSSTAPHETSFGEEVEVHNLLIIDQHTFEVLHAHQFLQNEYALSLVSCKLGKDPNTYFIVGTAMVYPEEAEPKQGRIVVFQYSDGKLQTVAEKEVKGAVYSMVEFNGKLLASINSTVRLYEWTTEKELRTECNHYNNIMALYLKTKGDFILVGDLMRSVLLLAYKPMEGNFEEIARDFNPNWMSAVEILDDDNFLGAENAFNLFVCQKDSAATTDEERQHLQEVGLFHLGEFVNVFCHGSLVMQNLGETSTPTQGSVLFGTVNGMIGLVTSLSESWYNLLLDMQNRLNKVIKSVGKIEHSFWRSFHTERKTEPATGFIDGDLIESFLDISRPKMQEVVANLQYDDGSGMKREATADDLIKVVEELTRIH

Structure (SMILES)	Dmax (NEK7; read-out: NEK7 NanoBiT Dmax)	Dmax (NEK7; [1])	DC50 (NEK7; read-out: NEK7 NanoBiT DC50)	DC50 (NEK7; [2])	EC50 (CRBN-DDB1)	EC50 (CRBN-DDB1; HTRF class, Cereblon binding)
COc1cnc(C(C)(C)C(=O)NCc2cc(Cl)c(C3CCC(=O)NC3=O)c(Cl)c2)nc1 (stereo not drawn) [Compound 189]	94%	> 75%	4 nM	≤ 100 nM	70 nM	≤ 100 nM
COc1cnc(C(C)(C)C(=O)NCc2cc(Cl)c(C3CCC(=O)NC3=O)c(Cl)c2)nc1C (stereo not drawn) [Compound 221, N-(3,5-dichloro-4-(2,6-dioxopiperidin-3-yl)benzyl)-2-(5-methoxy-4-methylpyrimidin-2-yl)-2-methylpropanamide]	83%	> 75%	19 nM	≤ 100 nM	80 nM	≤ 100 nM
COc1nc(C(C)(C)C(=O)NCc2cc(Cl)c(C3CCC(=O)NC3=O)c(Cl)c2)ncc1C (stereo not drawn) [Compound 216]	82%	> 75%	21 nM	≤ 100 nM	100 nM	≤ 100 nM
CC(C)(C(=O)NCc1ccc(C2CCC(=O)NC2=O)c(Cl)c1)c1ccc(S(N)(=O)=O)cc1 (stereo not drawn) [Compound 56]	67%	50 to 75%	244 nM	100 to 1000 nM	470 nM	100 to 1000 nM
CC(C)(C(=O)NCc1cc(Cl)c(C2CCC(=O)NC2=O)c(Cl)c1)c1nnc(C(F)(F)F)o1 (stereo not drawn) [Compound 208]	56%	50 to 75%	345 nM	100 to 1000 nM	170 nM	100 to 1000 nM
CC(C)(C(=O)NCc1cc(F)c(C2CCC(=O)NC2=O)c(Cl)c1)c1cc(F)ccn1 (stereo not drawn) [Compound 260, N-(3-chloro-4-(2,6-dioxopiperidin-3-yl)-5-fluorobenzyl)-2-(4-fluoropyridin-2-yl)-2-methylpropanamide]	47%	≤ 50%	480 nM	100 to 1000 nM	110 nM	100 to 1000 nM
CC(F)(F)c1cnc(C(C)(C)C(=O)NCc2cc(F)c(C3CCC(=O)NC3=O)c(Cl)c2)cn1 (stereo not drawn) [Compound 255]	54%	50 to 75%	464 nM	100 to 1000 nM	90 nM	≤ 100 nM
CC(C)(C(=O)NCc1cc(F)c(C2CCC(=O)NC2=O)c(Cl)c1)c1ccc(OCC(F)F)nc1 (stereo not drawn) [Compound 269, N-(3-chloro-4-(2,6-dioxopiperidin-3-yl)-5-fluorobenzyl)-2-(6-(2,2-difluoroethoxy)pyridin-3-yl)-2-methylpropanamide]	95%	> 75%	1 nM	≤ 100 nM	100 nM	100 to 1000 nM
CC(C)(C(=O)NCc1cc(Cl)c(C2CCC(=O)NC2=O)c(Cl)c1)c1cnc(OC(F)(F)F)cn1 (stereo not drawn) [Compound 259]	91%	> 75%	6 nM	≤ 100 nM	90 nM	≤ 100 nM
CC(C)(C(=O)NCc1cc(F)c(C2CCC(=O)NC2=O)c(Cl)c1)c1ccc(OC(F)F)nn1 (stereo not drawn) [Compound 276]	79%	> 75%	33 nM	≤ 100 nM	190 nM	100 to 1000 nM
Cc1coc(C(C)(C)C(=O)NCc2cc(F)c(C3CCC(=O)NC3=O)c(Cl)c2)n1 (stereo not drawn) [Compound 254]	55%	50 to 75%	278 nM	100 to 1000 nM	120 nM	100 to 1000 nM
Cc1ccc(C(C)(C)C(=O)NCc2cc(Cl)c(C3CCC(=O)NC3=O)c(Cl)c2)nc1 (stereo not drawn) [Compound 89]	92%	> 75%	6 nM	≤ 100 nM	120 nM	100 to 1000 nM
CC(C)(C(=O)NCc1cc(Cl)c(C2CCC(=O)NC2=O)c(Cl)c1)c1ncc(F)cn1 (stereo not drawn) [Compound 11]	90%	> 75%	9 nM	≤ 100 nM	190 nM	100 to 1000 nM
Cc1ncc(C(C)(C)C(=O)NCc2cc(F)c(C3CCC(=O)NC3=O)c(Cl)c2)o1 (stereo not drawn) [Compound 281]	67%	50 to 75%	179 nM	100 to 1000 nM	260 nM	100 to 1000 nM
CCOc1ccc(C(C)(C)C(=O)NCc2cc(F)c(C3CCC(=O)NC3=O)c(Cl)c2)nn1 (stereo not drawn) [Compound 258]	91%	> 75%	4 nM	≤ 100 nM	70 nM	≤ 100 nM
